From US5260426A, “Process for the preparation of pseudo primycin” (Chinoin Gyogyszer Es Vegyeszeti Termekek Gyara R.T., priority 1988, dated 1993)
Read-outs that look alike come from different tables or passages of the source.

How the values were obtained:
Solubility = assay type: physicochemical
in vivo = details: mouse

Compound `CCCCC1C(=O)OC(CCCNC(=N)N)C(C)C(O)C(C)C=C(C)CCCCC(O)CC(O)CC(O)CC(O)CC(O)C(OC2OC(CO)C(O)C2O)C=C(C)C(O)CCCC(O)CCCC(O)CCC(C)C1O` (stereo not shown) [Pseudo-primycin-A1-acetate] has a solubility in ethanol (Solubility; ethanol) of 5 g/10 ml, a solubility in methanol (Solubility; methanol) of 10 g/10 ml and a solubility in water (Solubility; water) of 5 g/10 ml. It also gave an LD50 (in vivo; iv, female mice, read-out: LD50 values i.v. female) of 18.8 mg/kg, an LD50 (in vivo; iv, male mice, read-out: LD50 values i.v. male) of 17.7 mg/kg and an LD50 (in vivo; po, female mice, read-out: LD50 values p.o. female) of 1580 mg/kg. The LD50 (in vivo; po, male mice, read-out: LD50 values p.o. male) was 1720 mg/kg.
